{"source": "patent US20030083304A1", "about": "“CCAAT/enhancer binding protein-beta (C/EBPbeta) is a molecular target for cancer treatment” (priority 2001, published 2003)", "key": {"epidermal keratinocytes": {"system": "epidermal keratinocytes", "assay": "Apoptotic epidermal keratinocytes in DMBA-treated mice", "type": "in vivo, mouse", "conditions": "for Apoptotic Keratinocytes (%): single application 400 nmol DMBA", "text": "The lack of tumor development in carcinogen treated C/EPBβ-null mice could be due to apoptosis of C/EBPβ-deficient keratinoyctes that have acquired oncogenic Ha-ras lesions. To examine this possibility we treated mice with DMBA and scored the number of apoptotic keratinocytes in C/EBPβ-null and wild type epidermis using the cytological parameters described in the Methods. […] Similar fold increases in apoptotic cells were observed using TUNEL staining (data not shown). To determine if C/EBPβ-null mice also display increased apoptosis in response to UVB irradiation, a potent inducer of apoptosis and DNA damage, wild type and C/EBPβ-null mice were irradiated with UVB doses of 50, 100 and 200 mJ/cm^2. While all UVB doses increased the number of apoptotic epidermal keratinocytes, there was no difference between wild type and mutant mice (data not shown)."}, "mouse skin": {"system": "mouse skin", "conditions": "in vivo"}, "C/EBPβ": {"system": "C/EBPβ", "assay": "Ha-ras (12V)-induced activation of C/EBPβ in mouse keratinocytes", "type": "cell-based", "text": "A MAPK site has been identified in C/EBPβ. Replacing Thr-188 with an Ala-188 within this site completely blocks Ras-induced activation of C/EBPβ. […] Thus, the MAPK site in C/EBPβ, which is conserved in mouse, rat, bovine and human, is important in Ras signaling. Accordingly, useful compounds of the present invention are MAPK inhibitors such as PD98059, or compounds that bind the MAPK site in C/EBPβ and thus block oncogenic ras-induced activation."}}, "note": "Marks after values point to notes of the source that are not given here.", "data": [{"compound": "Cc1c2ccccc2c(C)c2c1ccc1ccccc12", "note": "[DMBA, 7,12-dimethylbenz[a]anthracene]", "values": [{"measurement": "increase in the number of basal apoptotic keratinocytes, C/EBPβ-null vs wild type mice", "setting": "epidermal keratinocytes; DMBA-treated", "value": 17, "unit": "fold"}, {"measurement": "Apoptotic Keratinocytes (%)", "setting": "epidermal keratinocytes; C/EBPβ −/− mice", "value": "1.73 ± 0.14^ab %"}, {"measurement": "Apoptotic Keratinocytes (%)", "setting": "epidermal keratinocytes; wild type mice", "value": "0.10 ± 0.02^a %"}, {"measurement": "average papillomas/mouse", "setting": "mouse skin; 129/Sv x C57BL/6 (wild type)", "value": 12, "unit": "papillomas/mouse"}, {"measurement": "papilloma incidence", "setting": "mouse skin", "value": "All of the wild-type mice developed papillomas"}, {"measurement": "resistance to carcinogenesis", "setting": "mouse skin", "value": "completely resistant"}]}, {"compound": "COc1cccc(-c2cc(=O)c3ccccc3o2)c1N", "note": "[PD98059]", "values": [{"measurement": "Ha-ras (12V)-induced activation of C/EBPβ", "setting": "C/EBPβ", "value": "partially blocks"}]}, {"compound": "ClC1(Cl)C2(Cl)C3(Cl)C4(Cl)C(Cl)(Cl)C5(Cl)C3(Cl)C1(Cl)C5(Cl)C24Cl", "note": "(centres unmarked) [mirex]", "values": [{"measurement": "tumor development", "setting": "mouse skin", "value": "refractory"}]}]}
